Experimental findings from patent US10584121B2 (Merck Sharp & Dohme Corp., priority 2015, dated 2020) are described below.

One data set can be described thus: Rat PK: plasma clearance after PO and IV dosing. The data set is classed as in vivo. To be noted: fasted male Wistar Han rats; IV 0.5 mg/kg or 0.05 mg/kg; 20/60/20 DMSO/PEG400/H2O. The protocol:
Experimental Procedure for Collecting Rat PK:
Pharmacokinetic parameters were determined following PO and IV dosing at 1 mg/kg and 0.5 mg/kg or 0.05 mg/kg respectively in fasted male Wistar Han rats. Compounds were formulated for both PO and IV dosing in 20/60/20 DMSO/PEG400/H2O. Plasma samples obtained from dosed animals were acidified by adding 30 μL of 2% formic acid to 100 μL of plasma to stabilize potential acyl-glucuronide metabolites. Sample clean-up was carried out by means of a single step protein precipitation technique by adding 200 μL of acetonitrile to 50 μL aliquots of individual subject samples. Samples were mixed by vortex for homogeneity and then subjected to centrifugation at 3500 rpm for 10 min. The supernatant (200 μL) was collected and an aliquot was injected into the LC-MS/MS for analysis. Pharmacokinetic parameters were calculated using established non-compartmental methods. The area under the plasma concentration versus time curve (AUC) was determined using the Watson software (version 7.3) or Phoenix Professional (version 6.2.1), with linear trapezoidal interpolation in the ascending slope and logarithmic trapezoidal interpolation in the descending slope. The portion of the AUC from the last measurable concentration to infinity was estimated from the equation, Ct/kel, where Ct represents the last measurable concentration and kel is the elimination rate constant. The latter was determined from the concentration versus time curve by linear regression at the terminal phase of the semi-logarithmic plot.
Regarding `O=C(O)c1ccc(-c2nn(C(=O)c3c(Cl)cccc3C(F)(F)F)c3cccnc23)c(F)c1` [historical compound, reference compound], the “Rat plasma clearance (Clp)” value was found to be 76 mL/min/kg.

Staying with this data set, now noted: rat, plasma; fasted male Wistar Han rats; IV 0.5 mg/kg or 0.05 mg/kg; 20/60/20 DMSO/PEG400/H2O; read-out: Rat plasma clearance (Clp).
On to `O=C(O)c1ccc(-c2nn(C(=O)c3c(Cl)cccc3C3(C(F)(F)F)CC3)c3cccnc23)c(F)c1` [Example 1A, 4-(1-(2-chloro-6-(1-(trifluoromethyl)cyclopropyl)benzoyl)-1H-pyrazolo[4,3-b]pyridin-3-yl)-3-fluorobenzoic acid], for which the clearance came out at 6 mL/min/kg.
On the same count and under the same terms, as for `O=C(O)c1ccc(-c2cn(C(=O)c3c(Cl)cccc3C3(C(F)(F)F)CC3)c3cccnc23)c(F)c1` [Example 1B, 4-(1-(2-chloro-6-(1-(trifluoromethyl)cyclopropyl)benzoyl)-1H-pyrrolo[3,2-b]pyridin-3-yl)-3-fluorobenzoic acid], the figure is 5 mL/min/kg.
For the compound `Cc1cccc(C2(C(F)(F)F)CC2)c1C(=O)n1nc(-c2ccc(C(=O)O)cc2F)c2ncccc21` [Example 1C, 3-fluoro-4-(1-(2-methyl-6-(1-(trifluoromethyl)cyclopropyl)benzoyl)-1H-pyrazolo[4,3-b]pyridin-3-yl)benzoic acid], the clearance worked out at 21 mL/min/kg.
The same measure, in the same setting: as for `O=C(O)c1ccc(-c2nn(C(=O)c3c(Cl)cccc3C3(C(F)F)CC3)c3cccnc23)c(F)c1` [Example 1D, 4-(1-(2-chloro-6-(1-(difluoromethyl)cyclopropyl)benzoyl)-1H-pyrazolo[4,3-b]pyridin-3-yl)-3-fluorobenzoic acid], the figure is 10 mL/min/kg; as for `O=C(O)c1ccc(-c2nn(C(=O)c3c(Cl)cccc3C3(CF)CC3)c3cccnc23)c(F)c1` [Example 1E, 4-(1-(2-chloro-6-(1-(fluoromethyl)cyclopropyl)benzoyl)-1H-pyrazolo[4,3-b]pyridin-3-yl)-3-fluorobenzoic acid], 16 mL/min/kg; as for `O=C(O)c1ccc(-c2nn(C(=O)c3c(C4(C(F)(F)F)CC4)ccc(F)c3Cl)c3cccnc23)c(F)c1` [Example 1F, 4-(1-(2-chloro-3-fluoro-6-(1-(trifluoromethyl)cyclopropyl)benzoyl)-1H-pyrazolo[4,3-b]pyridin-3-yl)-3-fluorobenzoic acid], 8 mL/min/kg.
The same measure, in the same setting: as for `O=C(O)c1ccc(-c2nn(C(=O)c3c(C(F)F)cccc3C3(C(F)(F)F)CC3)c3cccnc23)c(F)c1` [Example 1G, 4-(1-(2-(difluoromethyl)-6-(1-(trifluoromethyl)cyclopropyl)benzoyl)-1H-pyrazolo[4,3-b]pyridin-3-yl)-3-fluorobenzoic acid], the figure is 5 mL/min/kg; as for `O=C(O)c1ccc(-c2nn(C(=O)c3c(C4(C(F)F)CC4)ccc(F)c3Cl)c3cccnc23)c(F)c1` [Example 1H, 4-(1-(2-chloro-6-(1-(difluoromethyl)cyclopropyl)-3-fluorobenzoyl)-1H-pyrazolo[4,3-b]pyridin-3-yl)-3-fluorobenzoic acid], 16 mL/min/kg; as for `Cc1c(F)ccc(C2(C(F)(F)F)CC2)c1C(=O)n1nc(-c2ccc(C(=O)O)cc2F)c2ncccc21` [Example 1I, 3-fluoro-4-(1-(3-fluoro-2-methyl-6-(1-(trifluoromethyl)cyclopropyl)benzoyl)-1H-pyrazolo[4,3-b]pyridin-3-yl)benzoic acid], 18 mL/min/kg.
Regarding `O=C(O)c1ccc(-c2cn(C(=O)c3c(Cl)cccc3C3(C(F)F)CC3)c3cccnc23)c(F)c1` [Example 1J], the clearance came to 5 mL/min/kg.
